Test results reported in patent publication US9770467B2, “Compositions and methods for cancer immunotherapy” (THE JOHNS HOPKINS UNIVERSITY, priority 2012, dated 2017).

How the values were obtained:
primary human PBMCs = assay: IFN-α levels in primary human PBMCs by Cytometric Bead Array; assay type: cell-based; conditions: 50 μM, Effectene transfection, 24 hours; fifteen donors
Description: To determine the levels of IFN-α as a signature of CDN potency to activate innate immunity, 1×10^6 primary human PBMCs isolated from fifteen independent human donors were incubated in a 96 well U bottom plate for 30 min at 37° C., 5% CO2 with 50 μM of c-di-GMP (CDG), 1 μg/mL of Interferon Stimulatory DNA (ISD), or 4 μg/mL of Poly (I:C) utilizing Effectene transfection reagent (Qiagen) to transfer the molecules into the PBMC. ISD (Interferon Stimulating DNA) is TLR independent (Stetston, D. B. et. al. Immunity 24, 93-103, January 2006) and signals through cGAS, and is thus STING-dependent, while Poly (I:C) can signal through both TLR3 and RIG-I pathways, and are thus STING-independent. After 30 minutes, the cells were washed and replaced with RPMI media containing 10% FBS and incubated at 37° C., 5% CO2. After 24 hours incubation IFN-α levels were determined by Cytometric Bead Array (CBA, BD Biosciences) (FIG. 8).

STING = biological target: T1, STING (Mus musculus, UniProt Q3TBT3); conditions: cited from earlier work
T1 sequence (Q3TBT3 138-378 limits assumed): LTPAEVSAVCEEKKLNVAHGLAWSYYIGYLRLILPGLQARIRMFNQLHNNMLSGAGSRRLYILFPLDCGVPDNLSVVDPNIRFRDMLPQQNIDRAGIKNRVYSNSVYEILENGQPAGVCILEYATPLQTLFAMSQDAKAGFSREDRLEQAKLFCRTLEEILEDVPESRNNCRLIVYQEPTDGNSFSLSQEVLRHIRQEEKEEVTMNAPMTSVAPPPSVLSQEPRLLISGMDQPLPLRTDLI

Nc1nc2c(ncn2[C@@H]2O[C@@H]3COP(=O)(O)O[C@H]4[C@@H](O)[C@H](n5cnc6c(=O)[nH]c(N)nc65)O[C@@H]4COP(=O)(O)O[C@H]3[C@H]2O)c(=O)[nH]1 [cyclic-di-GMP, cyclic diguanylate monophosphate]
activation of innate immunity (IFN-α levels) (primary human PBMCs): activates innate immunity | binding to STING (STING): binds directly
